Results from PubChem BioAssay AID743340 (Broad Institute, 2014).
Inconclusive results are not listed. Activity calls are given as the source filed them.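 How the source made its calls: active means compounds whose fitted AC50 for signal loss is at most twice the top valid dose tested; inconclusive means flat curve with 30 to 70% inhibition, or poor fit; inactive means the rest.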

Biological target: Leucyl-cystinyl aminopeptidase (Mus musculus) (UniProt Q8C129)
Test: inhibition of mouse IRAP aminopeptidase activity – biochemical, Leu-AMC fluorescence, cherry-picked samples, set 2, selectivity assay for ERAP1 modulator project, dose response (AID 743340)
Details: purified IRAP, Leu-AMC cleavage fluorescence, 1 h

Leucyl-cystinyl aminopeptidase (Mus musculus), sequence (Q8C129 whole entry, looked up): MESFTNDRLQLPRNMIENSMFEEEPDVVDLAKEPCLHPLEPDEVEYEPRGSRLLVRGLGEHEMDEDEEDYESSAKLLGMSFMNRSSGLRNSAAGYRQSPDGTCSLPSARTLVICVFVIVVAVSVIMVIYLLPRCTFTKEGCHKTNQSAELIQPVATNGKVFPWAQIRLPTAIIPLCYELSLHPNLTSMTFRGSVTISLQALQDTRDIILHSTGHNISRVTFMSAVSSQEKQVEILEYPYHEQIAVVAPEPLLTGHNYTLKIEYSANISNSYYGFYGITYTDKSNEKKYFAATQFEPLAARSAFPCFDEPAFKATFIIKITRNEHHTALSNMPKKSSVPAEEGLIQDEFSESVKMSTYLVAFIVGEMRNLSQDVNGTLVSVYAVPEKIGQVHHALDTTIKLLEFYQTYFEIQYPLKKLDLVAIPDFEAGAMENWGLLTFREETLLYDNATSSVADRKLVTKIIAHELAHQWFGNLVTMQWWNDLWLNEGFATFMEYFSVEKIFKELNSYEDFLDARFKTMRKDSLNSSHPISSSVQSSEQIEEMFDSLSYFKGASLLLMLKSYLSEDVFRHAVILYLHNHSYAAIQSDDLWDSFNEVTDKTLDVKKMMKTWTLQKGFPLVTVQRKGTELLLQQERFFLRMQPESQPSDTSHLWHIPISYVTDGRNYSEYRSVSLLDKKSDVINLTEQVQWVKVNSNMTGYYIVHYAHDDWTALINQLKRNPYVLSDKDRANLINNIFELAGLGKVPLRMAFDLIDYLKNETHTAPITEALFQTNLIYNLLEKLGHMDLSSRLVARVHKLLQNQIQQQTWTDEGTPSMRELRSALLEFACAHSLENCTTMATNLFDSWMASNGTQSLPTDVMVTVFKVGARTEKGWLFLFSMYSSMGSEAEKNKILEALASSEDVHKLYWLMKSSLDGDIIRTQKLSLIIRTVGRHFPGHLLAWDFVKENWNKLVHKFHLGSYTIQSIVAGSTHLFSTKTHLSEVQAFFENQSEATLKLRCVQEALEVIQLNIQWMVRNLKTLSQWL

SMILES	activity change, negative = inhibition (at 11 µM (top of the series))	other results
C[C@H](CO)N1C[C@H](C)[C@H](CN(C)CC2CCCCC2)Oc2c(NC(=O)Nc3ccc(C(F)(F)F)cc3)cccc2C1=O	inactive	–
Cc1noc(C)c1NC(=O)N(C)C[C@@H]1Oc2c(NC(=O)Nc3ccc(F)cc3)cccc2C(=O)N([C@H](C)CO)C[C@@H]1C	inactive	–
C[C@@H]1CCCCO[C@@H](CN(C)Cc2ccc3c(c2)OCO3)[C@@H](C)CN([C@H](C)CO)C(=O)c2cc(NS(=O)(=O)c3cccs3)ccc2O1	inactive	–
CC(=O)N1CCN(C(=O)C2(NC(=O)Nc3ccc(C)cc3)CCCCC2)CC1	inactive	–
C[C@@H]1CCCCO[C@@H](CN(C)Cc2ccc3c(c2)OCO3)[C@@H](C)CN([C@@H](C)CO)C(=O)c2cc(NS(=O)(=O)c3ccccc3)ccc2O1	–	activity change, negative = inhibition (at 5.6 µM (top of the series)): inactive
C[C@@H]1CCCCO[C@H](CN(C)Cc2ccc(C(=O)O)cc2)[C@@H](C)CN([C@H](C)CO)C(=O)c2cc(NC(=O)Nc3ccc(C(F)(F)F)cc3)ccc2O1	inactive	–
COc1ccc(CN(C)C[C@H]2OCCCC[C@@H](C)Oc3ccc(NS(=O)(=O)c4cccs4)cc3C(=O)N([C@H](C)CO)C[C@H]2C)cc1	inactive	–
Cc1noc(C)c1S(=O)(=O)N(C)C[C@@H]1OCCCC[C@@H](C)Oc2ccc(NS(=O)(=O)c3cccs3)cc2C(=O)N([C@@H](C)CO)C[C@@H]1C	–	activity change, negative = inhibition (at 10 µM (top of the series)): inactive
COc1cccc(S(=O)(=O)N(C)C[C@@H]2Oc3ncccc3C(=O)N([C@H](C)CO)C[C@@H]2C)c1	inactive	–
O=C(C[C@H]1CC[C@H]2[C@@H](COC[C@@H](O)CN2C(=O)Nc2cccc(Cl)c2)O1)N1CCCCC1	inactive	–
CCC(=O)N(C)C[C@@H]1Oc2ncc(C#Cc3ccncc3)cc2C(=O)N([C@@H](C)CO)C[C@@H]1C	inactive	–
C[C@@H]1CCCCO[C@@H](CN(C)C(=O)CCC(F)(F)F)[C@@H](C)CN([C@@H](C)CO)C(=O)c2cc(NS(=O)(=O)c3ccc(Cl)cc3)ccc2O1	–	activity change, negative = inhibition (at 5 µM (top of the series)): inactive
C[C@@H]1CCCCO[C@@H](CN(C)Cc2ccccc2)[C@@H](C)CN([C@H](C)CO)C(=O)c2cc(NS(=O)(=O)c3cccs3)ccc2O1	–	activity change, negative = inhibition (at 5.6 µM (top of the series)): inactive
CCCN(C)C[C@@H]1OCCCC[C@@H](C)Oc2ccc(NS(=O)(=O)c3cccs3)cc2C(=O)N([C@H](C)CO)C[C@@H]1C	inactive	–
C[C@H](CO)N1C[C@H](C)[C@H](CN(C)Cc2ccc(C(=O)O)cc2)Oc2c(NC(=O)Nc3ccccc3)cccc2C1=O	inactive	–
COc1ccc(CN(C)C[C@@H]2OCCCC[C@@H](C)Oc3ccc(NS(=O)(=O)c4cccs4)cc3C(=O)N([C@@H](C)CO)C[C@H]2C)cc1	inactive	–
O=C(CSc1cn[nH]n1)Nc1cccc(C(=O)O)c1	inactive	–
COc1ccc(C(=O)O)cc1S(=O)(=O)Nc1cc(C(F)(F)F)ccc1N1CCCCC1	inactive	–
COc1ccc(S(=O)(=O)N(C)C[C@@H]2Oc3ncccc3C(=O)N([C@H](C)CO)C[C@@H]2C)cc1	–	activity change, negative = inhibition (at 5.6 µM (top of the series)): inactive
COc1ccc(CN(C)C[C@@H]2OCCCC[C@H](C)Oc3ccc(NS(=O)(=O)c4cccs4)cc3C(=O)N([C@@H](C)CO)C[C@@H]2C)cc1	inactive	–
C[C@@H]1CCCCO[C@@H](CN(C)Cc2ccccc2)[C@H](C)CN([C@H](C)CO)C(=O)c2cc(NS(=O)(=O)c3cccs3)ccc2O1	inactive	–
